Source: ChEMBL document CHEMBL6121046, “Discovery of Novel Hydrazide-Based HDAC3 Inhibitors as Epigenetic Immunomodulators for Cancer Immunotherapy” (J Med Chem, 2025)
pIC50: −log10 of the molar value. Calls of active or inactive are those of the source. The calls are words filed in the database; no cut-off is given here.

What was measured:
[1] = molecular target: Histone deacetylase 1 (Homo sapiens, UniProt Q13547); test: Inhibition of human recombinant HDAC1 pre-incubated with compounds for 10 mins measured followed by 60 mins of substrate addition
Histone deacetylase 1, sequence (Q13547 whole entry): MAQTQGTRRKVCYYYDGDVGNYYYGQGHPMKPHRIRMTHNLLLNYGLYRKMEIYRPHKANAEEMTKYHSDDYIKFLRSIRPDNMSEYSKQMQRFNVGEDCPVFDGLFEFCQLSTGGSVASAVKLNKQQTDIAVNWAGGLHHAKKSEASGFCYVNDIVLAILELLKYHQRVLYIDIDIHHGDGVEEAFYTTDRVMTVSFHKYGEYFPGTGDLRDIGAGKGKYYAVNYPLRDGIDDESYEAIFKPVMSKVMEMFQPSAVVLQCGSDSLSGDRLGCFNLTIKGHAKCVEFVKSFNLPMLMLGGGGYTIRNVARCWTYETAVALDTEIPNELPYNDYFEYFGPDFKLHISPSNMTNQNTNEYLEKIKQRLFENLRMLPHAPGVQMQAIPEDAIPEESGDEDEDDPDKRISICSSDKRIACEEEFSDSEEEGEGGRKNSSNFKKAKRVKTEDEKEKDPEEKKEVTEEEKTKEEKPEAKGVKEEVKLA

[2] = molecular target: Histone deacetylase 3 (Homo sapiens, UniProt O15379); test: Inhibition of human recombinant HDAC3 pre-incubated with compounds for 10 mins measured followed by 60 mins of substrate addition
Histone deacetylase 3, sequence (O15379 whole entry): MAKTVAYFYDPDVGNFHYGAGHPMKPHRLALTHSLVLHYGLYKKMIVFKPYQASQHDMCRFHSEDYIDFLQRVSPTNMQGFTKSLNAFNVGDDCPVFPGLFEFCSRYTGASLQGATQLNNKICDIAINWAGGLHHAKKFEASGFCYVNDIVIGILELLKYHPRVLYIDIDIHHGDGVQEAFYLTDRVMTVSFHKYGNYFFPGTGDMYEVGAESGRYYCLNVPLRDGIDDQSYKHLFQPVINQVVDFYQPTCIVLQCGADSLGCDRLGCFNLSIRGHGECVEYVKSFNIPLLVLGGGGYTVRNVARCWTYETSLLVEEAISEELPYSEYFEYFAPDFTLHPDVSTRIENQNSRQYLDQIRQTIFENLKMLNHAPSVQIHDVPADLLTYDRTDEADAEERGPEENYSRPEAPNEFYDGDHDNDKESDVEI

[3] = molecular target: T1, Protein deacetylase HDAC6 (Homo sapiens, UniProt Q9UBN7); test: Inhibition of human recombinant HDAC6 pre-incubated with compounds for 10 mins measured followed by 60 mins of substrate addition
T1 sequence (Q9UBN7 whole entry): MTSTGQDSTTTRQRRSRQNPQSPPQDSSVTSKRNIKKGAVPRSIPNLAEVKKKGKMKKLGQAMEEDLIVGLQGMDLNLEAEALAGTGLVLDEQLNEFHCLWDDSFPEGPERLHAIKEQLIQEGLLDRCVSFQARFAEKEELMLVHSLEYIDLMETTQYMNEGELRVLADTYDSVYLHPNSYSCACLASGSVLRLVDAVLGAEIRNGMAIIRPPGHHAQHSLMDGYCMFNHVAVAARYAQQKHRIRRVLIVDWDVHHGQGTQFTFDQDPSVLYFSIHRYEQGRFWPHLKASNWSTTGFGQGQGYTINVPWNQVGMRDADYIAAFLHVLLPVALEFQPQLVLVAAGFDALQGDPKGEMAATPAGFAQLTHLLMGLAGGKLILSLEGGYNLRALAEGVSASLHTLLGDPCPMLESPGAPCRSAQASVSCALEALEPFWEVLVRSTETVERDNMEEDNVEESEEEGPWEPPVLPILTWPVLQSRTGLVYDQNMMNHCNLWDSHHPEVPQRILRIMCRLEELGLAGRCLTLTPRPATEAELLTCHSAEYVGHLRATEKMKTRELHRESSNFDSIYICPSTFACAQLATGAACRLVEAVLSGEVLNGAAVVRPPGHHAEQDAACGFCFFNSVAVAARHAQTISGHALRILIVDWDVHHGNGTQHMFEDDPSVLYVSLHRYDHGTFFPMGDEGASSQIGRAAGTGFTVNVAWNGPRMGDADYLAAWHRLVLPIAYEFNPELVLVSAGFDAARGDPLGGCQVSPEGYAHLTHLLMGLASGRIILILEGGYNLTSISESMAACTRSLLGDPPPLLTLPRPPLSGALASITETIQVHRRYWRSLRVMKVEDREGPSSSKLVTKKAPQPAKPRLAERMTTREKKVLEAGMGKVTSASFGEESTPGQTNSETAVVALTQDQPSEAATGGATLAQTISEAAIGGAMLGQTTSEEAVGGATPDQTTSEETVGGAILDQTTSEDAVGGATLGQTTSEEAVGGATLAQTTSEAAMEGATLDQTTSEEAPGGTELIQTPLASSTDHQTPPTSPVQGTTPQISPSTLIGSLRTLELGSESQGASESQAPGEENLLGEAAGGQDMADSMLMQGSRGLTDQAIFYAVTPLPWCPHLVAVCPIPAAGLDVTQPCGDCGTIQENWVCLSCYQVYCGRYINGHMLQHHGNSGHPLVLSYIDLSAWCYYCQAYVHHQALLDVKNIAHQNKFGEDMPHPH

[4] = molecular target: T2, Histone deacetylase 7 (Homo sapiens, UniProt Q8WUI4); test: Inhibition of human recombinant HDAC7 pre-incubated with compounds for 10 mins measured followed by 60 mins of substrate addition
T2 sequence (Q8WUI4 whole entry): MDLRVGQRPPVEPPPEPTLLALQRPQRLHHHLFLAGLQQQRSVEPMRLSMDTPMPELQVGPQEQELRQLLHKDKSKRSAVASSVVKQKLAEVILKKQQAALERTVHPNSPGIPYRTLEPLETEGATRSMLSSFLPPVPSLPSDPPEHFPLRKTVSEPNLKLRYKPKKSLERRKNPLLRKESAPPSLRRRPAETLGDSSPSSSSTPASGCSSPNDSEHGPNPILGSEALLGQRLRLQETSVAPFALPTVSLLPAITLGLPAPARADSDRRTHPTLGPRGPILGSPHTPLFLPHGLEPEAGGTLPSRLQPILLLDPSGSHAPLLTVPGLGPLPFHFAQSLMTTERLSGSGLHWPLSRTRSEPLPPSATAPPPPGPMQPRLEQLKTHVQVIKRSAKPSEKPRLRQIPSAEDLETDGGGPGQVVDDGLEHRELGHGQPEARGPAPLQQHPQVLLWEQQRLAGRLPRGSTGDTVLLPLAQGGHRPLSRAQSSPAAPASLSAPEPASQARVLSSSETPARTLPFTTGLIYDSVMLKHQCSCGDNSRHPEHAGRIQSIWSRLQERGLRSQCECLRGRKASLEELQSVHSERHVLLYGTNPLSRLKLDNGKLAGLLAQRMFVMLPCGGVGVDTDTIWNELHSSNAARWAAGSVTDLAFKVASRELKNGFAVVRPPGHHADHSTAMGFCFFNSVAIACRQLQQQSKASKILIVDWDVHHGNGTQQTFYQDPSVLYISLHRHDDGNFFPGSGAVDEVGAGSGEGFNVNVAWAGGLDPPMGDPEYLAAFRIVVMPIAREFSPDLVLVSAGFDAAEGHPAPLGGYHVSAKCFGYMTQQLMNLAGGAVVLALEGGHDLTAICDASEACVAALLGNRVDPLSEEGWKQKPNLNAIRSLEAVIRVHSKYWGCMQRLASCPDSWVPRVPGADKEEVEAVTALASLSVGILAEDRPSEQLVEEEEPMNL

[5] = molecular target: T3, Histone deacetylase 8 (Homo sapiens, UniProt Q9BY41); test: Inhibition of human recombinant HDAC8 pre-incubated with compounds for 10 mins measured followed by 60 mins of substrate addition
T3 sequence (Q9BY41 whole entry): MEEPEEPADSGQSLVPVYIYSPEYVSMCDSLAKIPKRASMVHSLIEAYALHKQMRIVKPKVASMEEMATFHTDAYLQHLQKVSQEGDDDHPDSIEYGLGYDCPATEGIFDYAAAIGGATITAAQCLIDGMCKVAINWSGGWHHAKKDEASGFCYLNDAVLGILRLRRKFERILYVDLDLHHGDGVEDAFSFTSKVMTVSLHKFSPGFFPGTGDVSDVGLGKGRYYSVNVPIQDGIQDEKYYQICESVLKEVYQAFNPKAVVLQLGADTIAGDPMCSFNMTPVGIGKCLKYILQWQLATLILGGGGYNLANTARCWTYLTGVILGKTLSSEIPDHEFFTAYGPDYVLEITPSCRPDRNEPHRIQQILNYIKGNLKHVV

[6] = tested on: B16-F10; test: Antiproliferative activity against mouse B16-F10 cells at 1 uM measured after 48 hrs incubation by MTT assay relative to control
[7] = tested on: HeLa; test: Antiproliferative activity against human HeLa cells measured after 48 hrs incubation by MTT assay relative to control; format: functional, cell-based
[8] = tested on: HepG2; test: Antiproliferative activity against human HepG2 cells measured after 48 hrs incubation by MTT assay relative to control; format: functional, cell-based; conditions: HepG2, 48 h
[9] = tested on: MCF7; test: Antiproliferative activity against human MCF7 cells measured after 48 hrs incubation by MTT assay relative to control; format: functional, cell-based; conditions: MCF7, 48 h
[10] = tested on: MC-38; test: Antiproliferative activity against mouse MC38 cells measured after 48 hrs incubation by MTT assay relative to control; format: functional, cell-based; conditions: MC-38, 48 h
[11] = Antiproliferative activity against […] cells measured after 48 hrs incubation by MTT assay relative to control; format: functional, cell-based; conditions: Mus musculus, Lung cancer cell line
[12] = tested on: HCT-116; test: Antiproliferative activity against human HCT-116 cells measured after 48 hrs incubation by MTT assay relative to control; format: functional, cell-based; conditions: HCT-116, 48 h
[13] = tested on: B16-F10 (Mus musculus); test: Antiproliferative activity against mouse B16-F10 cells measured after 48 hrs incubation by MTT assay relative to control; conditions: B16-F10, 48 h
[14] = tested on: MC-38; test: Increase in acetylated H3 in mouse MC38 cells at 0.1 to 2 uM measured after 24 hrs incubation by Western blot analysis; format: functional, cell-based; conditions: dose 0.1-2 µM
[15] = tested on: MC-38; test: Effect on acetylated alpha-tubulin in mouse MC38 cells at 0.1 to 2 uM measured after 24 hrs incubation by Western blot analysis; format: functional, cell-based; conditions: dose 0.1-2 µM
[16] = tested on: MC-38; test: Effect on acetylated SMC3 in mouse MC38 cells at 0.1 to 2 uM measured after 24 hrs incubation by Western blot analysis; format: functional, cell-based; conditions: dose 0.1-2 µM

Compound	pIC50 [1]	pIC50 [2]	pIC50 [3]	pIC50 [4]	pIC50 [5]	pIC50 [7]	pIC50 [8]	pIC50 [9]	pIC50 [12]	pIC50 [13]	Activity [6]	pIC50 [10]	pIC50 [11]	Activity [14]	Activity [15]	Activity [16]
CCCNNC(=O)c1ccc(CNC(=O)c2cnc(-c3ccc4[nH]ccc4c3)[nH]2)cc1											2.77%					
Nc1ccccc1NC(=O)c1ccc(CNC(=O)OCc2cccnc2)cc1 [ENTINOSTAT]						< 5.00	5.39	5.05		5.03	16.1%	< 5.00	5.54	Active	inactive	inactive
COc1ccc(-c2ncc(C(=O)NCc3ccc(C(=O)Nc4ccccc4N)cc3)[nH]2)cc1	5.35	7.00	< 5.00	< 5.00	< 5.00						28.07%					
CCCNNC(=O)c1ccc(CNC(=O)c2cnc(-c3ccc(F)cc3)[nH]2)cc1	6.02	6.89	5.04	< 5.00	< 5.00						37.64%					
CCCNNC(=O)c1ccc(CNC(=O)c2cnc(-c3ccnc4ccccc34)[nH]2)cc1	5.49	6.77	< 5.00	< 5.00	< 5.00						13.07%					
CCCNNC(=O)c1ccc(CNC(=O)c2cnc(-c3ccc(OC)cc3)[nH]2)cc1	5.63	7.06	< 5.00	< 5.00	< 5.00						33.01%					
Nc1ccccc1NC(=O)c1ccc(CNC(=O)c2cnc(-c3ccccc3)[nH]2)cc1	5.85	6.92	< 5.00	< 5.00	< 5.00						15.84%					
Nc1ccccc1NC(=O)c1ccc(CNC(=O)c2cnc(-c3ccc(F)cc3)[nH]2)cc1											9.98%					
CCCNNC(=O)c1ccc(CNC(=O)c2cnc(-c3ccc4c(c3)OCCO4)[nH]2)cc1	5.41	6.54	< 5.00	< 5.00	< 5.00						23.11%					

Further lines, with some results ahead:

pIC50 [1]	pIC50 [2]	pIC50 [3]	pIC50 [4]	pIC50 [5]	pIC50 [7]	pIC50 [8]	pIC50 [9]	pIC50 [12]	pIC50 [13]	Compound	Activity [6]	pIC50 [10]	pIC50 [11]	Activity [14]	Activity [15]	Activity [16]
5.44	6.48	< 5.00	< 5.00	< 5.00						Nc1ccccc1NC(=O)c1ccc(CNC(=O)c2cnc(-c3ccc4c(c3)OCCO4)[nH]2)cc1	13.1%					
5.34	7.00	< 5.00	< 5.00	< 5.00						Nc1ccccc1NC(=O)c1ccc(CNC(=O)c2cnc(-c3ccc4ccccc4c3)[nH]2)cc1	28.15%					
					5.42	6.17	5.75	6.51	5.75	CCCNNC(=O)c1ccc(CNC(=O)c2ncc(CNc3ccccc3)s2)cc1	57.29%	5.63	6.60			
5.61	7.02	5.03	< 5.00	< 5.00						Nc1ccccc1NC(=O)c1ccc(CNC(=O)c2cnc(-c3cccc4ccccc34)[nH]2)cc1	39.28%					
5.76	7.13	< 5.00	< 5.00	< 5.00	5.78	6.16	5.68	6.66	5.71	CCCNNC(=O)c1ccc(CNC(=O)c2cnc(-c3ccc4ccccc4c3)[nH]2)cc1	52.99%	5.46	5.86			
5.69	7.18	5.05	< 5.00	< 5.00	5.71	6.30	5.64	6.80	5.51	CCCNNC(=O)c1ccc(CNC(=O)c2cnc(-c3ccccc3)[nH]2)cc1	49.33%	5.28	5.66			
	7.51									COc1ccc(-c2ncc(C(=O)NCCCCCCC(=O)NO)s2)c(OC)c1						
5.38	7.04	< 5.00	< 5.00	< 5.00						Nc1ccccc1NC(=O)c1ccc(CNC(=O)c2cnc(-c3ccc4occc4c3)[nH]2)cc1	31.86%					
